# Reference: US9045403B2 (Coyote Pharmaceuticals, Inc., priority 2012, dated 2015)
# Several values for one entry are separate records, joined by “and”; a condition that tells them apart may be missing. Equal entries are not always repeated.
# Assays:
# [1] = tested on: Neuro2A cells; experiment: Neuro2A cells that extended neurites, with GGTI-298 (Example 18); type: cell-based, mouse; conditions: 0.1-1 μM, vehicle 0.0-0.20
# From the text: After differentiation was induced, cells that extended neurites were counted.
# [2] = tested on: rats, kainic acid model; experiment: Concentration dependence of neuroprotection in the kainic acid model; type: in vivo, rat; conditions: one dose at 0, 1, 3, 6, 12 or 24 mg/kg; fraction of cells damaged
# Experimental: The fraction of cells damaged in the kainic acid model was determined on 130 rats, each receiving one dose of CNS-102 at either 0, 1, 3, 6, 12 or 24 mg/kg. PBS was used for dosing at 0 mg/kg. The linear model of the log10 percent damage versus concentration is graphically shown FIG. 5.
# [3] = Blood chemistry and hematology in Sod1 mutant and wild type mice; conditions: daily oral 12 mg/kg
# Experimental: A total of 84 male mice (64 transgenic Sod1 mutant mice; 20 wild type mice) were included in the study. Dosing was administered daily beginning at postnatal day 38 (P38) via a single bolus oral gavage injection.
# Blood and serum samples from days P70 and P100 were collected on three animals from each of the six treatment groups. Hematology measures were white blood cell count, red blood cell count, hemoglobin, hematocrit, mean corpuscular volume, mean corpuscular hemoglobin, mean corpuscular hemoglobin concentration, and platelets. Chemistry values were alanine aminotransferase, aspartate aminotransferase, albumin, total protein, gamma globulin, blood urea nitrogen, cholesterol, and glucose.
# [4] = tested on: Murine neuro2A neuroblastoma cells; experiment: Neurite outgrowth of neuro2A cells inhibited with GGTI-298 (Example 30); type: cell-based, mouse; conditions: for Relative %: relative to uninhibited count
# Experimental: Differentiation was induced and cells incubated with geranylgeranyl transferase I inhibitor, GGTI-298. After 24 h digital images were taken and neurite outgrowth was quantified. The comparisons of the neuroprotective effect of these three compounds are shown below.
# The estimated mean log10 counts, from five replicate wells for each treatment group were calculated by PROC GLM in SAS assuming a pooled estimate of variation.
# The estimated mean log10 counts from five replicate wells for each treatment group were calculated by PROC GLM in SAS assuming a pooled estimate of variation.
# Differences in mean log(counts) between treatments for each concentration were calculated using PROC GLM in SAS. The p-value given is for the comparison of the estimated difference to zero, the expected difference value for no treatment effect. The anti-log of the differences represent the estimated ratio of counts (relative effect on inhibition) and are tabulated below along with the lower and upper 95% confidence intervals.
# [5] = tested on: HSP70; experiment: HSP70 induction in rat hippocampus with or without stereotactic kainic acid injection; type: in vivo
# Experimental: Stereotactic injections of Kainic acid into rat hippocampus tissues led to increased damages in neurons. […] Under this condition, neurons and HSP70 expression was stained by immunohistochemistry techniques. HSP70 expression was induced in a very specific area only that KA was injected. The induced area was not stained by HSP70 antibody when KA was not injected, but CNS-102 was dosed.
# HSP70 induction by dosing CNS-102 in the absence of the KA injection was limited in western blot experiments using hippocampus lysates. 120% or 130% of HSP70 expression could be seen by comparing those of vehicle dosing control experiments.
# [6] = tested on: HSP70; experiment: HSP70 expression in cortex and hippocampus by western blot after oral dosing; type: in vivo, rat; parameters: HSP70 expression, treatment average: scale not given here
# Experimental: The time course of protein expression, as measured by western blot for HSP70, was determined in triplicate for hippocampus, and cortex tissue samples taken from each of 5 animals per group at each of four time points (24, 48, 72, and 96 h) after treatment with either PBS or 12 mg/kg CNS-102, administered orally. The average expression for each treatment group is calculated at each time point for each tissue using PROC MIXED in SAS and are tabulated, along with the difference (delta) between treatment averages and a p-value comparing the difference to zero, below.
# [7] = Pharmacokinetics of CNS-102 in rats, IV and oral; type: in vivo; conditions: rat
# Experimental: Rats were administered a single dose of CNS-102 either intravenously (12 mg/kg) or orally (24 mg/kg), and blood samples were taken to measure the average plasma concentrations of CNS-102 over time.
# The formulation for this study includes the following: […]
# AUC(0-last) (min*ng/ml): area under the concentration-time curve from zero up to the last measurable time-point.
# lz (1/min): the first order rate constant associated with the terminal (log-linear) portion of the curve, estimated by linear regression of time vs. log concentration.
# Terminal Half-Life (t½)=ln(2)/lz: calculated using Lambda_z method to find best fit. If necessary, the concentration-time points were manually selected for use in the calculation. Bolded-italicized concentrations indicate points used for calculation.
# AUC(0-inf) (min*ng/ml): Area under the concentration-time curve from zero up to infinity, based on the last observed concentration. Requires lz.
# [8] = tested on: Sprague Dawley rats, KA injected into the hippocampus; experiment: Neuroprotection by CNS-102 in the presence of GGA cis-isomer in the kainic acid model; type: in vivo; conditions: 24 mg/Kg rat oral; KA at 72 hours
# Experimental: After dosing, KA was stereotactically injected into the hippocampus at 72 hours to induce neuron damage. After 24 h, hippocampus tissue was collected, stained, and imaged. The scans were analyzed by Image J to calculate the fraction of cells having KA-induced damage.
# [9] = tested on: Sprague-Dawley rats injected with Kainic acid; experiment: Kainic acid induced neurodegeneration and seizure in rats (Example 21); type: in vivo, rat; conditions: oral
# From the text: Seizure behaviors were observed and scored (Ref. R. J. Racine, Modification of seizure activity by electrical stimulation: II. Motor seizure, Electroencephalogr. Clin. Neurophysiol. 32 (1972) 281-294. Modifications were made for the methods). Brain tissues of rats were sectioned on histology slides, and neurons in hippocampus tissues were stained by Nissl. Neurons damaged by Kainic acid and behavior scores were quantified.
# [10] = Cortex, 24 hours after 12 mg/kg oral
# [11] = Cortex, 48 hours after 12 mg/kg oral
# [12] = Cortex, 72 hours after 12 mg/kg oral
# [13] = Cortex, 96 hours after 12 mg/kg oral
# [14] = Hippocampus, 24 hours after 12 mg/kg oral
# [15] = Hippocampus, 48 hours after 12 mg/kg oral
# [16] = Hippocampus, 72 hours after 12 mg/kg oral
# [17] = Hippocampus, 96 hours after 12 mg/kg oral
smiles,measurement,setting,value
CC(=O)CC/C=C(\C)CC/C=C(\C)CC/C=C(\C)CCC=C(C)C [CNS-102],Mean of cell numbers (Arbitrary units),[1],0.45-0.65 Arbitrary units
same,minimal effective dose,[2],12 mg/kg
same,cholesterol levels (in words),[3],cholesterol levels were reduced
same,Median Counts of cells with neurite outgrowth,"[4]; 10 nM, CNS-101 vs CNS-102 experiment (no inhibition 95.5, PBS 21.5)",33.8
same,Relative %,"[4]; 10 nM, CNS-101 vs CNS-102 experiment",35.4%
same,Median Counts of cells with neurite outgrowth,"[4]; 100 nM, CNS-101 vs CNS-102 experiment (no inhibition 95.5, PBS 21.5)",43.4
same,Relative %,"[4]; 100 nM, CNS-101 vs CNS-102 experiment",45.4%
same,Median Counts of cells with neurite outgrowth,"[4]; 100 nM, CNS-102 vs CNS-103 experiment (no inhibition 60.3, PBS 18.5)",33.5
same,Relative %,"[4]; 100 nM, CNS-102 vs CNS-103 experiment",55.6%
same,Median Counts of cells with neurite outgrowth,"[4]; 1000 nM, CNS-101 vs CNS-102 experiment (no inhibition 95.5, PBS 21.5)",51.0
same,Relative %,"[4]; 1000 nM, CNS-101 vs CNS-102 experiment",53.4%
same,Median Counts of cells with neurite outgrowth,"[4]; 1000 nM, CNS-102 vs CNS-103 experiment (no inhibition 60.3, PBS 18.5)",23.8
same,Relative %,"[4]; 1000 nM, CNS-102 vs CNS-103 experiment",39.5%
same,Median Counts of cells with neurite outgrowth,"[4]; 10000 nM, CNS-101 vs CNS-102 experiment (no inhibition 95.5, PBS 21.5)",38.2
same,Relative %,"[4]; 10000 nM, CNS-101 vs CNS-102 experiment",40%
same,maximum protection,"[4]; CNS-101 vs CNS-102 experiment, FIG. 4A",~40%
same,maximum protection,"[4]; CNS-102 vs CNS-103 experiment, FIG. 4B",~36%
same,HSP70 induction (in words),"[5]; KA stereotactically injected in hippocampus, localized in the injection site",a strong induction of HSP70 was seen very clearly
same,HSP70 expression compared with vehicle dosing control,"[5]; western blot of hippocampus lysates, absence of the KA injection",120% and 130%
same,"HSP70 expression, delta CNS-PBS",[6]; [10],0.24
same,"HSP70 expression, treatment average",[6]; [10],−0.016
same,"HSP70 expression, delta CNS-PBS",[6]; [11],0.11
same,"HSP70 expression, treatment average",[6]; [11],−0.45
same,"HSP70 expression, delta CNS-PBS",[6]; [12],0.13
same,"HSP70 expression, treatment average",[6]; [12],0.14
same,"HSP70 expression, delta CNS-PBS",[6]; [13],0.19
same,"HSP70 expression, treatment average",[6]; [13],0.04
same,"HSP70 expression, delta CNS-PBS",[6]; [14],−0.088
same,"HSP70 expression, treatment average",[6]; [14],−0.159
same,"HSP70 expression, delta CNS-PBS",[6]; [15],0.2
same,"HSP70 expression, treatment average",[6]; [15],0.02
same,"HSP70 expression, delta CNS-PBS",[6]; [16],0.14
same,"HSP70 expression, treatment average",[6]; [16],−0.06
same,"HSP70 expression, delta CNS-PBS",[6]; [17],0.17
same,"HSP70 expression, treatment average",[6]; [17],−0.32
same,"AUC(0-inf), Average",[7]; 12 mg/kg IV,208728 ng·min/mL
same,"AUC(0-last), Average",[7]; 12 mg/kg IV,115146 ng·min/mL
same,"C0, Average",[7]; 12 mg/kg IV,9.144 µg/mL
same,"Vss, Average",[7]; 12 mg/kg IV,9.796 L/kg
same,"Vz, Average",[7]; 12 mg/kg IV,12.039 L/kg
same,"t1/2, Average",[7]; 12 mg/kg IV,2.45 h
same,"AUC(0-inf), Average",[7]; 24 mg/kg oral,204878 ng·min/mL
same,"AUC(0-last), Average",[7]; 24 mg/kg oral,189114 ng·min/mL
same,"Cmax, Average",[7]; 24 mg/kg oral,0.7529 µg/mL
same,"Tmax, Average",[7]; 24 mg/kg oral,5.67 h
same,"t1/2, Average",[7]; 24 mg/kg oral,1.72 h
same,"F(0-inf), Average",[7]; 24 mg/kg oral vs 12 mg/kg IV,49.1%
same,"F(0-last), Average",[7]; 24 mg/kg oral vs 12 mg/kg IV,82.1%
same,Mean of Hippocampus CA3 neurons damaged (Arbitrary units),[8],19.8182 Arbitrary units
same,Mean of Hippocampus CA3 neurons damaged (Arbitrary units),[9]; 3 mg/Kg rat,10.25 Arbitrary units
same,Mean of Hippocampus CA3 neurons damaged (Arbitrary units),[9]; 12 mg/Kg rat,10.16 Arbitrary units
same,Mean of Hippocampus CA3 neurons damaged (Arbitrary units),[9]; 25 mg/Kg rat,1.97 Arbitrary units
